# Reference: US20230096601A1, “BORTEZOMIB COMPOSITIONS” (MAIA Pharmaceuticals, Inc., priority 2021, published 2023)
# Assays:
# [1] = Equilibrium solubility by HPLC, bortezomib added directly to solvent system; type: physicochemical; conditions: buffered aqueous solutions, aqueous buffer, thermodynamic from solid; pH range of 4 to 7
# Method: Because pH appeared to influence chemical stability, sodium acetate or sodium phosphate were included in these matrixes as buffers, and the effect of pH on solubility was also assessed.
# The components were mixed (by shaking the glass container), and the mixture was observed. […] The suspension was allowed to equilibrate for 24 hours at room temperature while being protected from light. After the incubation, the solution phase was removed from the container into a clean vial by filtration through a 0.45 micron syringe filter, and the filtrate was assayed for bortezomib content using an HPLC procedure, and a bortezomib standard.
# [2] = Formulation trials with low concentrations of benzyl alcohol / DMSO in water: visual dissolution and physical stability; type: physicochemical; conditions: benzyl alcohol (2% v/v), DMSO (5% v/v) or combination added to bortezomib, then water; mixing >3 hours
# Method: Initial formulation experiments with low concentrations of various non-aqueous solvents were conducted targeting a bortezomib concentration of 2.5 mg/mL. Attempts to solubilize bortezomib were conducted using low concentrations of benzyl alcohol (2% v/v), or dimethyl sulfoxide (5% v/v), or a combination of these solvents. […] For these formulations, the non-aqueous solvent was added to bortezomib to dissolve it, followed by addition of water to the bortezomib-solvent mixture.
# Various concentrations of DMSO were explored as the non-aqueous component of the formulation (2% v/v to 5% v/v in water). Bortezomib was first completely dissolved in the batch volume of DMSO to form a concentrated “premix” solution prior to making up the batch to the target concentration (2.5 mg/mL) with water. This was done to facilitate the subsequent dissolution of bortezomib in the aqueous component.
# [3] = Solubility by HPLC, bortezomib premixed with nonaqueous solvent before addition to aqueous component; type: physicochemical; conditions: aqueous with cosolvent or surfactant or cyclodextrin, kinetic from dmso stock; premix in non-aqueous solvent, aqueous system with 25 mg/mL mannitol
# Method: This example was carried out to determine the solubility of bortezomib in particular solvents and solvent systems when the bortezomib is first dissolved in (the batch quantity) of a non-aqueous solvent to form a concentrated solution (“premix”), prior to adding the premix to the aqueous component(s). A bortezomib sample (between 10 and 50 mg) was placed in a suitable glass container and added to a defined volume of a nonaqueous solvent system (if used) as defined below in Table 4, to create a concentrated premix. The premix was subsequently added to enough buffered aqueous solvent to make a final volume of 5 mL, as defined below in Table 4.
# The resulting formulation was allowed to equilibrate for 24 hours at room temperature, protected from light. Solubility was determined by filtration through a 0.45 micron filter, and assay of the filtrate for bortezomib content using an HPLC procedure, and a bortezomib standard. One mL aliquots of the filtrate (saturated solution) were subjected to three freeze-thaw cycles of 24 hours at −20° C. and 24 hours at 25° C. each, with visual examination after each cycle. Absence of precipitation after the three cycles was used as an index of physical stability of the formulation upon long-term storage.
# [4] = Accelerated / room temperature stability testing at 25° C./60% RH, HPLC assay and impurities (percent of nominal bortezomib concentration); type: physicochemical
# Method: The compositions described herein are storage stable aqueous liquid ready-to-use compositions. The degradation of the active ingredient, as well as the formation of various impurities is controlled by the composition to a minimal level. Stability testing was performed at the long-term stability condition (2-8° C.) as well as the accelerated stability condition (25±2° C./60±5% RH) for refrigerated products. At each time point, the bortezomib content (assay) and the impurity profile was determined using an HPLC procedure, and a bortezomib reference standard. The HPLC method utilizes a reverse phase column with an aqueous formic acid/acetonitrile and aqueous formic acid/methanol mobile phase gradient and UV/PDA detector at a wavelength of about 270 nm.
# The effect of pH on bortezomib formulations using a low concentration of DMSO in water (4.5% v/v DMSO for the 2.5 mg/mL strength and 1% v/v DMSO for the 1 mg/mL strength) was then assessed. In each case, the bortezomib was first fully dissolved in the batch quantity of DMSO to form a concentrated premix solution, which was then added to water, and the pH adjusted with sodium hydroxide and/or hydrochloric acid to pH ranging from 4 to 8.5. […] Because oxidative degradation is a significant degradation pathway for bortezomib, filled vials were overlayed with nitrogen. These batches were placed on stability at accelerated (25° C.) and long-term storage conditions (2-8° C.). […] Although the 2.5 mg/mL formulations were not physically stable at 25° C., chemical stability, based on analysis after 2 months at 25° C., stability was poor at pH 4 and pH 8.5 for both strengths, with good stability being observed at pH 5.5 for the 2.5 mg/mL strength and pH 5.5 and 7 for the 1 mg/mL strength.
# The preparation of the concentrated bortezomib premix is performed. The batch quantity of bortezomib is added to a suitable glass container. The batch quantity of the non-aqueous solvent is then added to the bortezomib, and mixed until the bortezomib is completely dissolved. The initial aqueous component is separately prepared by dissolving the other excipients such as buffer, optionally a solubilizer and/or stabilizer, or a tonicity adjuster, in water for injection, which optionally has been degassed by sparging nitrogen through it and adjusting to the desired pH using appropriate pH adjusting agent, if needed. The aqueous component is typically prepared at about double the corresponding concentration(s) in the final formulation; this was typically accomplished by dissolving the excipients in approximately half the batch volume of water. The bortezomib premix is then added to the (concentrated) aqueous component, and mixed. Water is then added to make up to about 80-90% of the batch volume and a final pH adjustment is performed to the target pH using appropriate pH adjusting agent, if needed. After final pH adjustment, the batch is made up to the target batch volume. The batch is then sterile filtered using a 0.2 micron filter, filled into (2-mL, or 3-mL, or 5-mL) USP Type I, optionally amber, glass vials, stoppered with (13-mm or 20-mm) fluoropolymer-coated chlorobutyl rubber stoppers, and sealed with (13-mm or 20-mm) aluminum caps. The fill volume used is typically 3.5 mL for the 1 mg/mL formulations or 1.4 mL for the 2.5 mg/mL formulations (to contain 3.5 mg bortezomib per vial). Because bortezomib is known to be oxidation and light sensitive, compounding and filling is typically carried out in a glove box equilibrated with nitrogen at various residual oxygen levels (typically less than 5%). Light exposure is minimized.
# The stability testing under accelerated conditions (25° C. and 60% relative humidity for at least 6 months) of these formulations is presented in Table 6.
# [5] = cited from earlier work
# physchem = conditions: thermodynamic from solid
# Method: The solubility of bortezomib in select non-aqueous solvents was determined to understand if any of these solvents may be useful (as a co-solvent with water) at low concentrations in the final formulation.
# Approximately 25 mg of bortezomib was added to a suitable container. An initial volume of 0.5 mL of the non-aqueous solvent was added and the mixture stirred for 5 minutes. The appearance of the solution was recorded. […] If the bortezomib was not fully dissolved, additional volume of solvents were added in 0.25 mL increments with mixing for 5 minutes after each addition, and recording the appearance of the solution, until the bortezomib was fully dissolved, up to a total volume of 10 mL.
smiles,measurement,setting,value
"CC(C)C[C@H](NC(=O)[C@H](Cc1ccccc1)NC(=O)c1cnccn1)B(O)O [Bortezomib, [(1R)-3-methyl-1-[[(2S)-1-oxo-3-phenyl-2-[(pyrazinylcarbonyl)amino]propyl]amino]butyl] boronic acid]",solubility at 24 h,[1],< 0.5 mg/mL
same,dissolution at target 2.5 mg/mL,[2],precipitated after addition of water
same,solubility at 24 h,[3],> 4 mg/mL
same,Total Impurities after 2 months at 25° C. (%),"[4]; 1 mg/mL bortezomib, 1% (v/v) DMSO in water, pH 4",7.83%
same,Total Impurities after 2 months at 25° C. (%),"[4]; 1 mg/mL bortezomib, 1% (v/v) DMSO in water, pH 5.5",0.52%
same,Total Impurities after 2 months at 25° C. (%),"[4]; 1 mg/mL bortezomib, 1% (v/v) DMSO in water, pH 7",1.18%
same,Total Impurities after 2 months at 25° C. (%),"[4]; 1 mg/mL bortezomib, 1% (v/v) DMSO in water, pH 8.5",12.48%
same,Total Impurities after 2 months at 25° C. (%),"[4]; 2.5 mg/mL bortezomib, […] (v/v) DMSO in water, pH 4",13.71%
same,Total Impurities after 2 months at 25° C. (%),"[4]; 2.5 mg/mL bortezomib, […] (v/v) DMSO in water, pH 5.5",1.07%
same,Total Impurities after 2 months at 25° C. (%),"[4]; 2.5 mg/mL bortezomib, […] (v/v) DMSO in water, pH 7",5.91%
same,Total Impurities after 2 months at 25° C. (%),"[4]; 2.5 mg/mL bortezomib, […] (v/v) DMSO in water, pH 8.5",31.59%
same,solubility of bortezomib in water or buffered aqueous solutions reported by the suppliers,[5],< 0.1 mg/mL
same,solubility at 5 min,"physchem; N-methyl pyrrolidone (NMP), organic solvent or mixture",> 25 mg/mL
same,solubility at 5 min,"physchem; benzyl alcohol, organic solvent or mixture",> 50 mg/mL
same,solubility at 5 min,"physchem; dimethyl sulfoxide (DMSO), organic solvent or mixture",> 50 mg/mL
same,solubility at 5 min,"physchem; ethanol, organic solvent or mixture",~4.5 mg/mL
same,solubility at 5 min,"physchem; glycerol, organic solvent or mixture",< 2.5 mg/mL
same,solubility at 5 min,"physchem; polyethylene glycol 400, organic solvent or mixture",< 2.5 mg/mL
same,solubility at 5 min,"physchem; propylene glycol, organic solvent or mixture",~3.6 mg/mL
